Data on 31 compounds can be found in ChEMBL document CHEMBL6074628, “Rational design, synthesis and pharmacological characterization of novel aminopeptidase A inhibitors” (Bioorg Med Chem Lett, 2024).

Values after ≈ are worked out from the molar mass of the structure shown. Some results are limits rather than exact numbers.

A short description of data set [1]: Inhibition of rabbit kidney aminopeptidase A using GluNA as substrate incubated for 1 hrs by absorbance based assay.
The target of another data set is T1, Glutamyl aminopeptidase (Mus musculus, UniProt P16406).
T1 sequence (P16406 whole entry): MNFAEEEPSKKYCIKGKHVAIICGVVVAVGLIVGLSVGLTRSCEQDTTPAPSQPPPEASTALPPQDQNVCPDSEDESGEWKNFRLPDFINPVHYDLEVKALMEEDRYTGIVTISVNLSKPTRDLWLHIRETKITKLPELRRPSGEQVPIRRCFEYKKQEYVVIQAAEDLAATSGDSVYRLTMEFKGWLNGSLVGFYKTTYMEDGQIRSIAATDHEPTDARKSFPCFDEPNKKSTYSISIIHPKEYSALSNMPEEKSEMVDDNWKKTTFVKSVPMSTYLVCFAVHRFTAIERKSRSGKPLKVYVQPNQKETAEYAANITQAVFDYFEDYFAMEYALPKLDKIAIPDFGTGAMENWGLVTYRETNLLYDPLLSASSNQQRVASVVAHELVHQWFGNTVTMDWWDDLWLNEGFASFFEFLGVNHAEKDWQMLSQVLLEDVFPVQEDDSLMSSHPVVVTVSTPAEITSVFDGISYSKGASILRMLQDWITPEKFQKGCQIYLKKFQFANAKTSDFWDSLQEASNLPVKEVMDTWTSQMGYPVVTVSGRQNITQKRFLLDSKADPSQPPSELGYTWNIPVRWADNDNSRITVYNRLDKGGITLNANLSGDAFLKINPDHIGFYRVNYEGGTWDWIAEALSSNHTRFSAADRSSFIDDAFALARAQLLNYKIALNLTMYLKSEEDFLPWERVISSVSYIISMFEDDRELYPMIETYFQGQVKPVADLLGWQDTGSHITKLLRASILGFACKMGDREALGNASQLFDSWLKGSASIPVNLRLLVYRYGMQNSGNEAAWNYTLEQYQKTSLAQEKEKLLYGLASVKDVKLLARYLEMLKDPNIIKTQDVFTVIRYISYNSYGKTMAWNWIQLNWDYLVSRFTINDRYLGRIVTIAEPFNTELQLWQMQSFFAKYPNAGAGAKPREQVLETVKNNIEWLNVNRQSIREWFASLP
In words: Inhibition of recombinant mouse aminopeptidase A activity.

A further data set addresses Aminopeptidase N (Homo sapiens, UniProt P15144). In words: Inhibition of APN (unknown origin).
Data set [2] in a line: Apparent permeability in human Caco-2 cells. (Caco-2 cells form a polarised layer with tight junctions and transporters.)
The nature of data set [3]: Solubility of compound in phosphate buffer at pH 7.4.
The target of the next data set is T2, Cytochrome P450 1A2 (Homo sapiens, UniProt P05177).
T2 sequence (P05177 whole entry): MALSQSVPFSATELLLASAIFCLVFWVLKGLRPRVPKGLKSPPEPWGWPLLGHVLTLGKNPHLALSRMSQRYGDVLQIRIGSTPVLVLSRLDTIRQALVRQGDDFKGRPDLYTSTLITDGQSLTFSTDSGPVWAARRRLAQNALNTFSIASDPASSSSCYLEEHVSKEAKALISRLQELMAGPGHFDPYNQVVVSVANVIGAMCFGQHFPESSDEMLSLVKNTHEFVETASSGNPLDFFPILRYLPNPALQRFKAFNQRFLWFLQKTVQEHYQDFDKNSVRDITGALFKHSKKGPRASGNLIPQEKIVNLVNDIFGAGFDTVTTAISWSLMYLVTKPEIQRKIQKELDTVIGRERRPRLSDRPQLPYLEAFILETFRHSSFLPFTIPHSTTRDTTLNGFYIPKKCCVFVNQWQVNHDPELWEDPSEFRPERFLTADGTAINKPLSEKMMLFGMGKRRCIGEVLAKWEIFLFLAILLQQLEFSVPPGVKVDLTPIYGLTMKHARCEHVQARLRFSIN
In words: Inhibition of CYP1A2 (unknown origin).

The target in the next data set is T3, Cytochrome P450 2B6 (Homo sapiens, UniProt P20813).
T3 sequence (P20813 whole entry): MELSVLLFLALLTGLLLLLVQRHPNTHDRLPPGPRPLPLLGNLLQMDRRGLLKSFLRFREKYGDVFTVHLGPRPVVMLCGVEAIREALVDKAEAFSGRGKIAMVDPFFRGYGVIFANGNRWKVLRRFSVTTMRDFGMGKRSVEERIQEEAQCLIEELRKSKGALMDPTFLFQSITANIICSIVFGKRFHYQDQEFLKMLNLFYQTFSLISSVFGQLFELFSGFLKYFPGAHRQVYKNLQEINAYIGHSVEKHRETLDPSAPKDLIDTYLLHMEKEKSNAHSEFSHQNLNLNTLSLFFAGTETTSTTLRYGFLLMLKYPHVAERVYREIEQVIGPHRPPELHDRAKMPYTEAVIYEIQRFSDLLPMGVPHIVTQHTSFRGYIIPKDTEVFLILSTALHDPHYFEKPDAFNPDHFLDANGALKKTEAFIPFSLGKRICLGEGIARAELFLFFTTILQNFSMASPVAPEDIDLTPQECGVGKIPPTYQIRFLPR
In words: Inhibition of CYP2B6 (unknown origin).

The next data set has as its target Cytochrome P450 2C9 (Homo sapiens, UniProt P11712). In words: Inhibition of CYP2C9 (unknown origin).
The next data set concerns the target Cytochrome P450 2C19 (Homo sapiens, UniProt P33261). In words: Inhibition of CYP2C19 (unknown origin).
The next data set concerns the target Cytochrome P450 2D6 (Homo sapiens, UniProt P10635). In words: Inhibition of CYP2D6 (unknown origin).
The next data set has as its target Cytochrome P450 3A4 (Homo sapiens, UniProt P08684). In words: Inhibition of CYP3A4 (unknown origin).
Data set [4] can be described thus: Stability in human hepatocyte assessed as parent compound remaining measured after 1 hrs. The following applies: hepatocytes.
A short description of data set [5]: Stability in rat hepatocyte assessed as parent compound remaining measured after 1 hrs. The following applies: hepatocytes.
The nature of data set [6]: Half-life in Sprague-Dawley rat at 2 mg/kg, iv. The following applies: in vivo.
The nature of data set [7]: Hepatic extraction ratio in Sprague-Dawley rat at 2 mg/kg, iv. The following applies: in vivo.
The nature of data set [8]: Drug concentration in Sprague-Dawley rat cerebrospinal fluid at 2 mg/kg, iv measured after 5 mins.
Data set [9] in a line: Drug concentration in Sprague-Dawley rat cerebrospinal fluid at 2 mg/kg, iv measured after 60 mins.
Data set [10] in a line: Drug concentration in Sprague-Dawley rat brain at 2 mg/kg, iv measured after 5 mins.
Data set [11] in a line: Drug concentration in Sprague-Dawley rat brain at 2 mg/kg, iv measured after 60 mins.
The nature of data set [12]: in vivo. The following applies: mouse, iv, 2 mg/kg.
Description: AUC (0 to t) in mouse at 2 mg/kg, iv
Data set [13] in a line: in vivo. The following applies: mouse, po, 20 mg/kg.
Description: AUC (0 to t) in mouse at 20 mg/kg, po
Data set [14] is described as follows: in vivo. The following applies: mouse.
Data set [15] in a line: in vivo. The following applies: Sprague-Dawley, rat, iv, 2 mg/kg.
Description: Cmax in Sprague-Dawley rat at 2 mg/kg, iv
Data set [16] in a line: in vivo. The following applies: Sprague-Dawley, rat, iv, 2 mg/kg. The source holds these as a separate data set.
Description: Renal clearance in Sprague-Dawley rat at 2 mg/kg, iv
Data set [17] in a line: Inhibition of APA (unknown origin).

Sequence of Aminopeptidase N (P15144 whole entry): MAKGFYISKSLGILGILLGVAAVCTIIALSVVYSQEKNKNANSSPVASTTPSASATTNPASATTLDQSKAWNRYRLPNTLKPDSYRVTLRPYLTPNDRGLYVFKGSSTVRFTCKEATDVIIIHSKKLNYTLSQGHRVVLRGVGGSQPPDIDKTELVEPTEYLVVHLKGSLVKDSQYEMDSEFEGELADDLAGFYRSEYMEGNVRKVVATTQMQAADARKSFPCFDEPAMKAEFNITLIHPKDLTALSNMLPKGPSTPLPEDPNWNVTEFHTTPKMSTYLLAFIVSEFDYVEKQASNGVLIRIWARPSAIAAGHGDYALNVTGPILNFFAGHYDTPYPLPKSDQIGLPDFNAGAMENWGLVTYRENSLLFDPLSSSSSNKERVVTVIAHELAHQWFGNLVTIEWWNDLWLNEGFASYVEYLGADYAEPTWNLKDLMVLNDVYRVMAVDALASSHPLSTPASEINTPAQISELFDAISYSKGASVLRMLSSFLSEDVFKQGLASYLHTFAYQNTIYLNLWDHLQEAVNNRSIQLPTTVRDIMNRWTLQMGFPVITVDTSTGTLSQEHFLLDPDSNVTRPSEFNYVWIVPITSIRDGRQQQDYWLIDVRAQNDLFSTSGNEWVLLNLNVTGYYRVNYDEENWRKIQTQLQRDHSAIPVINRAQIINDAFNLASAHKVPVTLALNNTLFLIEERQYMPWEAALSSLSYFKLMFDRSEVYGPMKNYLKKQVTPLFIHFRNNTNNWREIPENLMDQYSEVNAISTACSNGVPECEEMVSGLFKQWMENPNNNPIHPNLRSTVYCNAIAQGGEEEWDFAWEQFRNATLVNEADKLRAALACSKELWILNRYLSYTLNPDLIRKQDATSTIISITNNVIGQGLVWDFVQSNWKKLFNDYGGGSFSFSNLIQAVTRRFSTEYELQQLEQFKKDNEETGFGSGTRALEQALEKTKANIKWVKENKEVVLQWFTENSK
Sequence of Cytochrome P450 2C9 (P11712 whole entry): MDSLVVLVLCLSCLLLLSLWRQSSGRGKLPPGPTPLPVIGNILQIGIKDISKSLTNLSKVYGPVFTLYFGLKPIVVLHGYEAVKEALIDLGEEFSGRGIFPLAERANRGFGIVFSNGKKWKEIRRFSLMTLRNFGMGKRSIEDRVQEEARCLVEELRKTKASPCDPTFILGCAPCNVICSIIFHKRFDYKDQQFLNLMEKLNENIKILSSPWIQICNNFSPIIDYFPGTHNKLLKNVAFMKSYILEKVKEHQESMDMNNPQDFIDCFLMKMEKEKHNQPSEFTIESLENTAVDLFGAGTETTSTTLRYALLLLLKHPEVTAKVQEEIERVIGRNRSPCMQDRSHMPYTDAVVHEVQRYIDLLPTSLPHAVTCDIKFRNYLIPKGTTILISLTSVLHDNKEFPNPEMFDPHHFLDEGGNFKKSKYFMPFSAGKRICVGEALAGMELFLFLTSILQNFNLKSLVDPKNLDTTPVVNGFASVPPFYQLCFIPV
Sequence of Cytochrome P450 2D6 (P10635 whole entry): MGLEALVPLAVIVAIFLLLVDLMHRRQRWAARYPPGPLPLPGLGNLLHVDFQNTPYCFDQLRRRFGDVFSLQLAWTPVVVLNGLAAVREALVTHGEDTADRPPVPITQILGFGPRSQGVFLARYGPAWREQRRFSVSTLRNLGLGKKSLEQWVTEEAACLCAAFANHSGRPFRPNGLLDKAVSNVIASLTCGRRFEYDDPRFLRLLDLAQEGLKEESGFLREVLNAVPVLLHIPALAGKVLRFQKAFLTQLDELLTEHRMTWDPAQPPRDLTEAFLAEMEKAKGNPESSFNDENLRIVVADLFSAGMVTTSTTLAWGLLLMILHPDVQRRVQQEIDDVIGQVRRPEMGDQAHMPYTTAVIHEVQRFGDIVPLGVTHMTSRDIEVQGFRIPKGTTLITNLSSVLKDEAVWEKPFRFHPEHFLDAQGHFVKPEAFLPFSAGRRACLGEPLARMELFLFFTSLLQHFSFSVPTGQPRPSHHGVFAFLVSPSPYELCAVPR
Sequence of Cytochrome P450 2C19 (P33261 whole entry): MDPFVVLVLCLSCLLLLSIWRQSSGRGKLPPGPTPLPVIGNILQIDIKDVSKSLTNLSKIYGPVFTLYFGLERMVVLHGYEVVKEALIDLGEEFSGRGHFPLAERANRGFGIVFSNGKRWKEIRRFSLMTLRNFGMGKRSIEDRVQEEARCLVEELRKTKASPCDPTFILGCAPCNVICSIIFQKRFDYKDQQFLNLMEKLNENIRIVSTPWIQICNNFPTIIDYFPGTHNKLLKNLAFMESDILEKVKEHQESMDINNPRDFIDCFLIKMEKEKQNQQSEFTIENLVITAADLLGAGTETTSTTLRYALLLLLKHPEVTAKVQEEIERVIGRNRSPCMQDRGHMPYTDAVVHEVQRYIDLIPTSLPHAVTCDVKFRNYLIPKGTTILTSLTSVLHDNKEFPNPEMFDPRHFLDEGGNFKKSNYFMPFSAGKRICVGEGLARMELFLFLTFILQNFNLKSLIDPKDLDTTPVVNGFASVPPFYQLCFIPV
Sequence of Cytochrome P450 3A4 (P08684 whole entry): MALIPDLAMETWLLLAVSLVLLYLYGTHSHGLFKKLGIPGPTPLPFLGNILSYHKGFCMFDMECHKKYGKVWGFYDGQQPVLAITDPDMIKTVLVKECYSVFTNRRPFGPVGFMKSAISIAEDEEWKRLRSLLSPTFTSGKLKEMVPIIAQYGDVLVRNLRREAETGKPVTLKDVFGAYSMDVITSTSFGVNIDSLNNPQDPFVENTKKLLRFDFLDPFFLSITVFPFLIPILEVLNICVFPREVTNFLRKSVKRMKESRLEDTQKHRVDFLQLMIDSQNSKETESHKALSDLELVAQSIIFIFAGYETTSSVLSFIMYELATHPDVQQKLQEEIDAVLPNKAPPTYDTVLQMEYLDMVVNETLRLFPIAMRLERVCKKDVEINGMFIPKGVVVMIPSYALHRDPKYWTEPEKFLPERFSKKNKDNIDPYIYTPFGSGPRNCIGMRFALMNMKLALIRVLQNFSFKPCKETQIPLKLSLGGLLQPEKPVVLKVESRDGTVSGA

The Ki is the equilibrium dissociation constant of an inhibitor or competing ligand from its target. The compound `N[C@H](CS)CCC(=O)O` returned a Ki in [1] of 0.14 µM. As a reminder, the IC50 is the concentration at which inhibition is half-maximal. As for `COc1cccc(CCP(=O)(O)C(N)CCC(=O)O)c1` (centres undefined), the IC50 on Glutamyl aminopeptidase was 0.028 µM. The same measure, in the same setting: the result for `NC(CCC(=O)O)P(=O)(O)CCc1ccccc1OC1CCCC1` (centres undefined) reads 0.009 µM; that for `NC(CCC(=O)O)P(=O)(O)CCc1ccccc1Cl` (centres undefined), 0.021 µM.

Take `N[C@H](CCC(=O)O)P(=O)(O)CCc1ccccc1`: the IC50 at Glutamyl aminopeptidase is 0.66 µM. On the same count and under the same terms, the result for `NC(CCC(=O)O)P(=O)(O)CCc1ccccc1-c1ccccc1` (centres undefined) reads 0.042 µM. Same read-out and setting: the result for `COc1c(Cl)cccc1CCP(=O)(O)C(N)CCC(=O)O` (centres undefined) reads 0.054 µM; that for `NC(CCC(=O)O)P(=O)(O)CCc1cccc2ccccc12` (centres undefined), 0.007 µM. Usually Papp stands for a coefficient for how fast a substance crosses the barrier. What is called solubility is the concentration that dissolves in the medium under given conditions. Higher therefore signals a readily soluble substance. The amount remaining is what is left of the initial amount, in per cent. As usually defined, the half-life is the time in which the quantity being followed falls by half. The low end stands for fast loss, the high end for slow loss. The AUC(0-t) is the area under the concentration-time curve up to a stated or last time point. A word on the bioavailability: it is the share of a dose that reaches the circulation, judged against a reference dose that is usually intravenous. Low readings indicate little systemic uptake, high ones much systemic uptake. Usually Cmax stands for the peak of the concentration-time curve. `COc1ccccc1CCP(=O)(O)[C@@H](N)CCC(=O)O`: the IC50 is > 20 µM against Aminopeptidase N; 0.004 µM at Glutamyl aminopeptidase; > 25 µM against Cytochrome P450 1A2; > 25 µM against Cytochrome P450 2B6; > 25 µM on Cytochrome P450 2C9; > 25 µM at Cytochrome P450 2C19. The IC50 against Cytochrome P450 2D6 and against Cytochrome P450 3A4 was > 25 µM each time. Also, in data set [2], the Papp was determined as 0.5 ×10⁻⁶ cm/s. In addition, the concentration in solution in data set [3] (solubility) was 165 µM (≈ 49.7 µg/mL). The fraction remaining at 1 h in data set [4] was 99%; in data set [5], 93%. For the same compound, the half-life in [6] was ~30 min. Besides, the hepatic extraction ratio in data set [7] was ~0.45. Moreover, the concentration at 5 min in [8] turned out to be 281 ng/mL; in data set [10], 50.2 ng/g. The concentration at 1 h amounted to 115 ng/mL in data set [9] and 15.6 ng/g in data set [11]. In addition, the exposure AUC(0-t) in “in vivo [12]” turned out to be 919 ng·h/mL; in the data set “in vivo [13]”, 37.6 ng·h/mL. The bioavailability in “in vivo [14]” turned out to be 4.1%. The peak level in “in vivo [15]” (Cmax) was 4920 ng/mL. Besides, in the data set “in vivo [16]”, the CL renal was 0.6 mL/min. As to `COc1ccc(CCP(=O)(O)C(N)CCC(=O)O)cc1` (centres undefined), on Glutamyl aminopeptidase, the IC50 was 0.024 µM. Still for that read-out and setting: the result for `NC(CCC(=O)O)P(=O)(O)CCc1ccccc1OC1CCCCC1` (centres undefined) reads 0.001 µM; that for `NC(CCC(=O)O)P(=O)(O)CCc1ccc2ccccc2c1` (centres undefined), 0.021 µM; that for `Cn1cc(CCP(=O)(O)C(N)CCC(=O)O)c2ccccc21` (centres undefined), 0.03 µM. On the same count and under the same terms, the result for `NC(CCC(=O)O)P(=O)(O)CCC1CCCCC1` (centres undefined) reads 0.041 µM; that for `COc1ccccc1CCP(=O)(O)C(N)CCC(=O)O` (centres undefined), 0.009 µM.

On to `NC(CCC(=O)O)P(=O)(O)CCn1ncc2ccccc21` (centres undefined), for which the half-inhibitory concentration (IC50) at Glutamyl aminopeptidase was 0.42 µM. For the compound `N[C@@H](CCC(=O)O)P(=O)(O)CCc1ccccc1`, the half-maximal inhibitory concentration (IC50) on Glutamyl aminopeptidase stood at 0.01 µM. With `NC(CCC(=O)O)P(=O)(O)CCc1cccc(Cl)c1` (centres undefined), the IC50 at Glutamyl aminopeptidase stood at 0.061 µM. The same measure, in the same setting: the result for `NC(CCC(=O)O)P(=O)(O)CCc1ccccc1Oc1ccccc1` (centres undefined) reads 0.01 µM. Same read-out and setting: the result for `Cc1ccc(CCP(=O)(O)C(N)CCC(=O)O)cc1` (centres undefined) reads 0.023 µM. As for `N[C@@H](CCS(=O)(=O)O)[C@@H](S)CCc1ccccc1`, the Ki in data set [17] was 0.03 µM; at Aminopeptidase N it was > 10 µM. As for `Cc1ccccc1CCP(=O)(O)C(N)CCC(=O)O` (centres undefined), the IC50 at Glutamyl aminopeptidase turned out to be 0.018 µM. Same read-out and setting: the result for `NC(CCC(=O)O)P(=O)(O)CCc1cccc(Cl)c1Cl` (centres undefined) reads 0.026 µM; that for `Cc1cccc(CCP(=O)(O)C(N)CCC(=O)O)c1` (centres undefined), 0.027 µM; that for `NC(CCC(=O)O)P(=O)(O)CCc1ccccc1OC(F)(F)F` (centres undefined), 0.026 µM. With `NC(CCCC(=O)O)P(=O)(O)CCc1ccccc1` (racemic), at Glutamyl aminopeptidase, the IC50 was 0.93 µM.

As to `NC(CCP(=O)(O)O)P(=O)(O)CCc1ccccc1` (racemic), the IC50 at Glutamyl aminopeptidase worked out at 5.4 µM.

For the compound `NC(CCC(=O)O)P(=O)(O)CCc1ccccc1` (racemic), at Glutamyl aminopeptidase, the 50% inhibitory concentration (IC50) was 0.029 µM. Same read-out and setting: the result for `NC(CCC(=O)O)P(=O)(O)CCCc1ccccc1` (racemic) reads 0.054 µM; that for `NC(CCS(=O)(=O)O)P(=O)(O)CCc1ccccc1` (racemic), 0.31 µM.

Take `NC(CCC(=O)O)P(=O)(O)Cc1ccccc1` (racemic): the half-inhibitory concentration (IC50) at Glutamyl aminopeptidase came out at 0.039 µM.
